This note sets out measurements from ChEMBL document CHEMBL1138714, “Isosteric N-arylpiperazine replacements in a series of dihydropyridine NPY1 receptor antagonists” (Bioorg Med Chem Lett, 2004).

In general, IC50 refers to the concentration at which inhibition is half-maximal. One may read the Ki as the dissociation constant of the complex between target and ligand, obtained from inhibition or displacement. Read a high Ki as a looser hold on the target.

The target of the first assay is T1, Neuropeptide Y receptor type 1 (Homo sapiens, UniProt P25929).
T1 sequence (P25929 whole entry): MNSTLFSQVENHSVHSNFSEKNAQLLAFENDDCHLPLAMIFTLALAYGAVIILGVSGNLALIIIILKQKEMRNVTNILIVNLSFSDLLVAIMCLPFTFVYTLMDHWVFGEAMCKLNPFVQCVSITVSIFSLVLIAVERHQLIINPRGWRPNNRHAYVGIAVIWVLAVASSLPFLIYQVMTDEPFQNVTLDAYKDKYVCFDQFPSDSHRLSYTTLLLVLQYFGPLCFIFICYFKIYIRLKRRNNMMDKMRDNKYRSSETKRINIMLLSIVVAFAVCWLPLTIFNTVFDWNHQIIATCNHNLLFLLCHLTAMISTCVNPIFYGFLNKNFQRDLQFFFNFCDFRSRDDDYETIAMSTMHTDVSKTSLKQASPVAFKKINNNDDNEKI
As to the kind of experiment: Inhibition of binding of [125I]PYY to membranes of SK-N-MC cells expressing the human Y1 receptors. In kind it is cell membranes.
Compound `COC(=O)C1=C(C)N=C(C)/C(=C(/O)OC)C1c1cccc(NC(=O)NCCNC2CCN(c3ccccc3O)CC2)c1` (stereo unspecified) yielded an IC50 of 6 nM.
In the case of `COC(=O)C1=C(C)N=C(C)/C(=C(/O)OC)C1c1cccc(NC(=O)NCCNC2CCN(c3ccccc3C(F)(F)F)CC2)c1` (stereo unspecified), the half-maximal inhibitory concentration (IC50) turned out to be 31 nM.
On the same count and under the same terms, under `COC(=O)C1=C(C)N=C(C)/C(=C(/O)OC)C1c1cccc(N/C(=N/CCNC2CCN(c3ccccc3SC)CC2)NC#N)c1` (stereo unspecified) stands 3 nM; under `COC(=O)C1=C(C)N=C(C)/C(=C(/O)OC)C1c1cccc(NC(=O)NCCCN2CCN(c3ccccc3OC)CC2)c1` (stereo unspecified), 12 nM.
As for `COC(=O)C1=C(C)N=C(C)/C(=C(/O)OC)C1c1cccc(N/C(=N/CCCN2CCN(c3cccc(OC)c3)CC2)NC#N)c1` (stereo unspecified), the IC50 was 39 nM.
With `COC(=O)C1=C(C)N=C(C)/C(=C(/O)OC)C1c1cccc(N/C(=N/CCNC2CCN(c3ccccc3[N+](=O)[O-])CC2)NC#N)c1` (stereo unspecified), the IC50 was 4 nM.
`COC(=O)C1=C(C)N=C(C)/C(=C(/O)OC)C1c1cccc(N/C(=N/CCNC2CCN(c3ccccc3O)CC2)NC#N)c1` (stereo unspecified) yielded an IC50 of 5 nM.
For the compound `COC(=O)C1=C(C)N=C(C)/C(=C(/O)OC)C1c1cccc(NC(=O)NCCNC2CCN(c3ccccc3[N+](=O)[O-])CC2)c1` (stereo unspecified), the IC50 was 2 nM.
Still for that read-out and setting: under `COC(=O)C1=C(C)N=C(C)/C(=C(/O)OC)C1c1cccc(NC(=O)NCCNC2CCN(c3cccc(Cl)c3)CC2)c1` (stereo unspecified) stands 8 nM; under `COC(=O)C1=C(C)N=C(C)/C(=C(/O)OC)C1c1cccc(N/C(=N/CCNC2CCN(c3ccccc3)CC2)NC#N)c1` (stereo unspecified), 10 nM.
On the same count and under the same terms, under `COC(=O)C1=C(C)N=C(C)/C(=C(/O)OC)C1c1cccc(NC(=O)NCCNC2CCN(c3ccccc3C#N)CC2)c1` (stereo unspecified) stands 3 nM; under `COC(=O)C1=C(C)N=C(C)/C(=C(/O)OC)C1c1cccc(NC(=O)NCCNC2CCN(c3ccccc3SC)CC2)c1` (stereo unspecified), 5 nM.
On the same count and under the same terms, under `COC(=O)C1=C(C)N=C(C)/C(=C(/O)OC)C1c1cccc(NC(=O)NCCNC2CCN(c3ccccc3OC(F)(F)F)CC2)c1` (stereo unspecified) stands 25 nM; under `COC(=O)C1=C(C)N=C(C)/C(=C(/O)OC)C1c1cccc(N/C(=N/CCNC2CCN(c3ccccc3C)CC2)NC#N)c1` (stereo unspecified), 4 nM; under `COC(=O)C1=C(C)N=C(C)/C(=C(/O)OC)C1c1cccc(N/C(=N/CCNC2CCN(c3ccccc3C(F)(F)F)CC2)NC#N)c1` (stereo unspecified), 14 nM.
On to `COC(=O)C1=C(C)N=C(C)/C(=C(/O)OC)C1c1cccc(NC(=O)NCCNC2CCN(c3ccccc3OC)CC2)c1` (stereo unspecified), for which the 50% inhibitory concentration (IC50) was 2 nM. Compared with the last compound, the IC50 is about 7-fold lower.
The compound `COC(=O)C1=C(C)N=C(C)/C(=C(/O)OC)C1c1cccc(N/C(=N/CCNC2CCN(c3cccc(Cl)c3)CC2)NC#N)c1` (stereo unspecified) came in with an IC50 of 8 nM.
The compound `COC(=O)C1=C(C)N=C(C)/C(=C(/O)OC)C1c1cccc(N/C(=N/CCNC2CCN(c3ccccc3C#N)CC2)NC#N)c1` (stereo unspecified) displayed a half-maximal inhibitory concentration (IC50) of 3 nM.
Take `COC(=O)C1=C(C)N=C(C)/C(=C(/O)OC)C1c1cccc(N/C(=N/CCNC2CCN(c3ccccc3OC)CC2)NC#N)c1` (stereo unspecified): the half-maximal inhibitory concentration (IC50) was 4 nM. This IC50 and that of the compound before are within 1.5-fold of each other.
Still for that read-out and setting: the figure for `COC(=O)C1=C(C)N=C(C)/C(=C(/O)OC)C1c1cccc(N/C(=N/CCNC2CCN(c3ccccc3OC(F)(F)F)CC2)NC#N)c1` (stereo unspecified) is 28 nM.
Still for that read-out and setting: under `COC(=O)C1=C(C)N=C(C)/C(=C(/O)OC)C1c1cccc(NC(=O)NCCNC2CCN(c3ccccc3C)CC2)c1` (stereo unspecified) stands 4 nM; under `COC(=O)C1=C(C)N=C(C)/C(=C(/O)OC)C1c1cccc(NC(=O)NCCNC2CCN(c3ccccc3)CC2)c1` (stereo unspecified), 2 nM.

In a further assay the target is T1, Neuropeptide Y receptor type 1. As to the kind of experiment: Antagonist activity towards Neuropeptide Y receptor type 1. In kind it is functional.
`COC(=O)C1=C(C)N=C(C)/C(=C(/O)OC)C1c1cccc(NC(=O)NCCNC2CCN(c3ccccc3OC)CC2)c1` (stereo unspecified) returned an inhibitory constant (Ki) of 1.9 nM.
On the same count and under the same terms, under `COC(=O)C1=C(C)N=C(C)/C(=C(/O)OC)C1c1cccc(N/C(=N/CCNC2CCN(c3ccccc3OC)CC2)NC#N)c1` (stereo unspecified) stands 3.6 nM.

Tested on in the next assay: not listed separately
As to the kind of experiment: Tested for inhibition of the forskolin-stimulated cAMP production. In kind it is functional. A general note: Changes in cAMP serve as a functional read-out for many G protein-coupled receptors.
Compound `COC(=O)C1=C(C)N=C(C)/C(=C(/O)OC)C1c1cccc(NC(=O)NCCNC2CCN(c3ccccc3OC)CC2)c1` (stereo unspecified) returned a Kb of 20 nM.
The compound `COC(=O)C1=C(C)N=C(C)/C(=C(/O)OC)C1c1cccc(N/C(=N/CCNC2CCN(c3ccccc3OC)CC2)NC#N)c1` (stereo unspecified) came in with a Kb of 9.4 nM.
